Laboratory results as given in US9365575B2, “Kinase inhibitors” (Allergan, Inc., priority 2012, dated 2016).

Biological target: VEGFR2 (Homo sapiens (Human), UniProt P35968)
Assay: VEGFR2 Kinase Assay (biochemical KDR kinase assay, poly-Glu-Tyr ELISA)
Conditions: for IC50: purified cytoplasmic domain KDR protein, 2.7 μM ATP, 15 minute incubation at 30° C., read-out: VEGFR2 Enzyme IC50; for VEGFR2 potency as shown in this assay (in words): statement in words on the Table 2 data
Method: Biochemical KDR kinase assays were performed in 96 well microtiter plates that were coated overnight with 75 μg/well of poly-Glu-Tyr (4:1) in 10 mM Phosphate Buffered Saline (PBS), pH 7.4. The coated plates were washed with 2 mLs per well PBS+0.05% Tween-20 (PBS-T), blocked by incubation with PBS containing 1% BSA, then washed with 2 mLs per well PBS-T prior to starting the reaction. Reactions were carried out in 100 μL reaction volumes containing 2.7 μM ATP in kinase buffer (50 mM Hepes buffer pH 7.4, 20 mM MgCl2, 0.1 mM MnCl2 and 0.2 mM Na3VO4). […] Reactions were initiated by the addition 20 ul per well of kinase buffer containing 200-300 ng purified cytoplasmic domain KDR protein (BPS Bioscience, San Diego, Calif.). Following a 15 minute incubation at 30° C., the reactions were washed 2 mLs per well PBS-T. 100 μl of a monoclonal anti-phosphotyrosine antibody-peroxidase conjugate diluted 1:10,000 in PBS-T was added to the wells for 30 minutes. Following a 2 mLs per well wash with PBS-Tween-20, 100 μl of O-Phenylenediamine Dihydrochloride in phosphate-citrate buffer, containing urea hydrogen peroxide, was added to the wells for 7-10 minutes as a colorimetric substrate for the peroxidase. The reaction was terminated by the addition of 100 μl of 2.5N H2SO4 to each well and read using a microplate ELISA reader set at 492 nm. IC50 values for compound inhibition were calculated directly from graphs of optical density (arbitrary units) versus compound concentration following subtraction of blank values.

Sequence of VEGFR2 (P35968 786-1356): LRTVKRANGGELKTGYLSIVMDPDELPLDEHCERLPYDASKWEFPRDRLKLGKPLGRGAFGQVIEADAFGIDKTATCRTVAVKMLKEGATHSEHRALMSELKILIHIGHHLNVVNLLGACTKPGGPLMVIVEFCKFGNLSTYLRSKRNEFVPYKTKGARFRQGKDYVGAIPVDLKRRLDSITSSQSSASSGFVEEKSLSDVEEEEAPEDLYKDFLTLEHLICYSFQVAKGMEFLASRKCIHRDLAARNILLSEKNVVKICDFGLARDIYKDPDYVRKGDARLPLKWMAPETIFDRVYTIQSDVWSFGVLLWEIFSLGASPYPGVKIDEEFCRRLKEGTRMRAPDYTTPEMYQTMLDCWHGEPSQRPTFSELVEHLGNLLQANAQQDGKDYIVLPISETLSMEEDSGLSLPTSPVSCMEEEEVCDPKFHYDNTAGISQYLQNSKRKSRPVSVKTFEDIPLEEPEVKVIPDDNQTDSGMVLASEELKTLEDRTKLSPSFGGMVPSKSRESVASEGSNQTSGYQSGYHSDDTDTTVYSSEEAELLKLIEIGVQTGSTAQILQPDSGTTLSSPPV

| Structure (SMILES) | IC50 [nM] | VEGFR2 potency as shown in this assay (in words) |
| --- | --- | --- |
| COc1cccc(NC(=O)Nc2ccc(C3CN=C4c5ccccc5NC(=O)N4C3)cc2)c1 (stereo not drawn) [Example 13, 1-(3-Methoxyphenyl)-3-[4-(6-oxo-3,4,6,7-tetrahydro-2H-pyrimido[1,2-c]quinazolin-3-yl)phenyl]urea] | 1470 | – |
| O=C(Nc1ccc(C2CN=C3c4ccccc4NC(=O)N3C2)cc1)c1cccc(C(F)(F)F)c1 (stereo not drawn) [Example 17, N-[4-(6-oxo-3,4,6,7-tetrahydro-2H-pyrimido[1,2-c]quinazolin-3-yl)phenyl]-3-(trifluoromethyl)benzamide] | > 10000 | – |
| O=C(Nc1ccccc1)Nc1ccc(C2CN=C3c4ccccc4NC(=O)N3C2)cc1 (stereo not drawn) [Example 6, 1-[4-(6-Oxo-3,4,6,7-tetrahydro-2H-pyrimido[1,2-c]quinazolin-3-yl)phenyl]-3-phenylurea] | 4750 | – |
| Cc1cc(C2CN=C3c4ccccc4NC(=O)N3C2)ccc1N (stereo not drawn) [Example 22, 3-(4-amino-3-methylphenyl)-2,3,4,7-tetrahydro-6H-pyrimido[1,2-c]quinazolin-6-one] | > 10000 | – |
| O=C(Nc1ccc(C2CN=C3c4ccccc4NC(=O)N3C2)cc1)Nc1cc(C(F)(F)F)ccc1F (stereo not drawn) [Example 5, 1-[2-Fluoro-5-(trifluoromethyl)phenyl]-3-[4-(6-oxo-3,4,6,7-tetrahydro-2H-pyrimido[1,2-c]quinazolin-3-yl)phenyl]urea] | 360 | excellent VEGFR2 potency |
| CSc1cccc(NC(=O)Nc2ccc(C3CN=C4c5ccccc5NC(=O)N4C3)cc2)c1 (stereo not drawn) [Example 8, 1-[3-(Methylthio)phenyl]-3-[4-(6-oxo-3,4,6,7-tetrahydro-2H-pyrimido[1,2-c]quinazolin-3-yl)phenyl]urea] | 1800 | – |
| CC(C)NC(=O)Nc1ccc(C2CN=C3c4ccccc4NC(=O)N3C2)cc1 (stereo not drawn) [Example 14, 1-Isopropyl-3-[4-(6-oxo-3,4,6,7-tetrahydro-2H-pyrimido[1,2-c]quinazolin-3-yl)phenyl]urea] | – | lack of potency |
| Cc1cccc(NC(=O)Nc2ccc(C3CN=C4c5ccccc5NC(=O)N4C3)c(C)c2)c1 (stereo not drawn) [Example 24, 1-[3-methyl-4-(6-oxo-3,4,6,7-tetrahydro-2H-pyrimido[1,2-c]quinazolin-3-yl)phenyl]-3-(3-methylphenyl)urea] | 1500 | – |
| Cc1cc(NC(=O)Nc2cc(C(F)(F)F)ccc2F)ccc1C1CN=C2c3ccccc3NC(=O)N2C1 (stereo not drawn) [Example 25, 1-[2-fluoro-5-(trifluoromethyl)phenyl]-3-[3-methyl-4-(6-oxo-3,4,6,7-tetrahydro-2H-pyrimido[1,2-c]quinazolin-3-yl)phenyl]urea] | 390 | – |
| CNc1ccc(C2CN=C3c4ccc(C(=O)OC)cc4NC(=O)N3C2)cc1 (stereo not drawn) [Example 18, Methyl 3-[4-(methylamino)phenyl]-6-oxo-3,4,6,7-tetrahydro-2H-pyrimido[1,2-c]quinazoline-9-carboxylate] | > 10000 | – |
| Cc1ccoc1C(=O)Nc1cccc(C2CN=C3c4ccccc4NC(=O)N3C2)c1 (stereo not drawn) [Example 15, 3-Methyl-N-[3-(6-oxo-3,4,6,7-tetrahydro-2H-pyrimido[1,2-c]quinazolin-3-yl)phenyl]-2-furamide] | 6380 | excellent VEGFR2 potency |
| O=C(Nc1cccc(C2CN=C3c4ccccc4NC(=O)N3C2)c1)Nc1cc(C(F)(F)F)ccc1F (stereo not drawn) [Example 3, 1-[2-Fluoro-5-(trifluoromethyl)phenyl]-3-[3-(6-oxo-3,4,6,7-tetrahydro-2H-pyrimido[1,2-c]quinazolin-3-yl)phenyl]urea] | 760 | excellent VEGFR2 potency |

More lines, now with the values ahead:

| IC50 [nM] | VEGFR2 potency as shown in this assay (in words) | Structure (SMILES) |
| --- | --- | --- |
| > 10000 | – | O=C1Nc2ccccc2C2=NCC(c3ccc(Cl)cc3)CN12 (stereo not drawn) [Example 1, 3-(4-Chlorophenyl)-2,3,4,7-tetrahydro-6H-pyrimido[1,2-c]quinazolin-6-one] |
| > 10000 | – | Cc1ccoc1C(=O)Nc1ccc(C2CN=C3c4ccccc4NC(=O)N3C2)cc1 (stereo not drawn) [Example 16, 3-Methyl-N-[4-(6-oxo-3,4,6,7-tetrahydro-2H-pyrimido[1,2-c]quinazolin-3-yl)phenyl]-2-furamide] |
| > 10000 | lack of potency | CN1CCN(CC(=O)Nc2ccc(C3CN=C4c5ccccc5NC(=O)N4C3)cc2)CC1 (stereo not drawn) [Example 20, 2-(4-Methylpiperazin-1-yl)-N-[4-(6-oxo-3,4,6,7-tetrahydro-2H-pyrimido[1,2-c]quinazolin-3-yl)phenyl]acetamide] |
| > 10000 | – | Nc1cccc(C2CN=C3c4ccccc4NC(=O)N3C2)c1 (stereo not drawn) [Example 2, 3-(3-Aminophenyl)-2,3,4,7-tetrahydro-6H-pyrimido[1,2-c]quinazolin-6-one] |
| > 10000 | – | Cc1cc(N)ccc1C1CN=C2c3ccccc3NC(=O)N2C1 (stereo not drawn) [Example 23, 3-(4-amino-2-methylphenyl)-2,3,4,7-tetrahydro-6H-pyrimido[1,2-c]quinazolin-6-one] |
| > 10000 | lack of potency | COC(=O)c1ccc2c(c1)NC(=O)N1CC(c3ccc(N(C)C(=O)CN4CCN(C)CC4)cc3)CN=C21 (stereo not drawn) [Example 19, Methyl 3-(4-{methyl[(4-methylpiperazin-1-yl)acetyl]amino}phenyl)-6-oxo-3,4,6,7-tetrahydro-2H-pyrimido[1,2-c]quinazoline-9-carboxylate] |
| 330 | excellent VEGFR2 potency | Cc1cccc(NC(=O)Nc2ccc(C3CN=C4c5ccccc5NC(=O)N4C3)cc2)c1 (stereo not drawn) [Example 10, 1-(3-Methylphenyl)-3-[4-(6-oxo-3,4,6,7-tetrahydro-2H-pyrimido[1,2-c]quinazolin-3-yl)phenyl]urea] |
| > 10000 | – | COc1ccc(NC(=O)Nc2ccc(C3CN=C4c5ccccc5NC(=O)N4C3)cc2)cc1 (stereo not drawn) [Example 12, 1-(4-Methoxyphenyl)-3-[4-(6-oxo-3,4,6,7-tetrahydro-2H-pyrimido[1,2-c]quinazolin-3-yl)phenyl]urea] |
| 250 | excellent VEGFR2 potency | O=C(Nc1ccc(C2CN=C3c4ccccc4NC(=O)N3C2)cc1)Nc1cccc(Br)c1 (stereo not drawn) [Example 9, 1-(3-Bromophenyl)-3-[4-(6-oxo-3,4,6,7-tetrahydro-2H-pyrimido[1,2-c]quinazolin-3-yl)phenyl]urea] |
| > 10000 | – | Nc1ccc(C2CN=C3c4ccccc4NC(=O)N3C2)cc1 (stereo not drawn) [Example 4, 3-(4-Aminophenyl)-2,3,4,7-tetrahydro-6H-pyrimido[1,2-c]quinazolin-6-one] |
| 4030 | – | Cc1ccc(NC(=O)Nc2ccc(C3CN=C4c5ccccc5NC(=O)N4C3)cc2)cc1 (stereo not drawn) [Example 11, 1-(4-Methylphenyl)-3-[4-(6-oxo-3,4,6,7-tetrahydro-2H-pyrimido[1,2-c]quinazolin-3-yl)phenyl]urea] |
| > 10000 | – | COC(=O)c1ccc2c(c1)NC(=O)N1CC(c3ccc(N(C)C(=O)Nc4cc(C(F)(F)F)ccc4F)cc3)CN=C21 (stereo not drawn) [Example 21, Methyl 3-{4-[({[2-fluoro-5-(trifluoromethyl)phenyl]amino}carbonyl)(methyl)amino]phenyl}-6-oxo-3,4,6,7-tetrahydro-2H-pyrimido[1,2-c]quinazoline-9-carboxylate] |
| 340 | excellent VEGFR2 potency | O=C(Nc1ccc(C2CN=C3c4ccccc4NC(=O)N3C2)cc1)Nc1ccc(Cl)c(C(F)(F)F)c1 (stereo not drawn) [Example 7, 1-[4-Chloro-3-(trifluoromethyl)phenyl]-3-[4-(6-oxo-3,4,6,7-tetrahydro-2H-pyrimido[1,2-c]quinazolin-3-yl)phenyl]urea] |
